# ChEMBL document CHEMBL4316583, “In Vitro and in Vivo Antitumor Effects of Plant-Derived Miliusanes and Their Induction of Cellular Senescence” (J Med Chem, 2019)
# Active and inactive are the calls of the source. The rule behind the calls is not given here.
# Tests used:
# HCT-116 [1] = test: Growth inhibition human HCT116 cells after 72 hrs by MTS assay; assay type: functional, cell-based; conditions: HCT-116, 72 h
# HCT-116 [2] = test: Cytotoxicity against human HCT116 cells assessed as cell growth inhibition after 24 hrs by sulforhodamine B assay; assay type: functional, cell-based; conditions: HCT-116, 24 h
# [3] = Toxicity in nude BALB/c mouse xenografted with human HCT116 cells assessed as body weight loss at 20 to 30 mg/kg, ip administered twice a week for 3 weeks; assay type: organism-based; conditions: in vivo, 504 h
# HCT-116 [4] = test: Antitumor activity against human HCT116 cells xenografted in nude BALB/c mouse assessed as suppression of excised tumor size at 20 mg/kg, ip administered twice a week for 3 weeks relative to control; assay type: functional
# HCT-116 [5] = test: Induction cell cycle arrest in human HCT116 cells assessed as accumulation in G1 phase at 1.6 uM after 12 hrs by propidium iodide-staining based flow cytometry; assay type: functional
# HCT-116 [6] = test: Induction of cellular senescence in human HCT116 cells assessed as up-regulation of p21 protein expression at 0.1 to 0.4 ug/ml after 48 hrs by Western blot analysis; assay type: functional, cell-based
# HCT-116 [7] = test: Induction of apoptosis in human HCT116 cells assessed as viable cells at 1.32 uM after 48 hrs by annexin V/propidium iodide-double staining based flow cytometry (reference value: 88.3%); assay type: functional; conditions: HCT-116, 48 h, read-out: Activity
# A2780 = test: Growth inhibition human A2780 cells after 72 hrs by MTS assay; assay type: functional, cell-based; conditions: A2780, 72 h
# HCT-116 [8] = test: Induction of apoptosis in human HCT116 cells assessed as late apoptotic cells at 1.32 uM after 48 hrs by annexin V/propidium iodide-double staining based flow cytometry (reference value: 4.6%); assay type: functional
# HCT-116 [9] = test: Cytotoxicity against human HCT116 cells assessed as cell growth inhibition after 48 hrs by sulforhodamine B assay; assay type: functional, cell-based; conditions: HCT-116, 48 h
# HCT-116 [10] = test: Antitumor activity against human HCT116 cells xenografted in nude BALB/c mouse assessed as tumor growth inhibition at 30 mg/kg, ip administered twice a week for 3 weeks relative to control; assay type: functional; conditions: HCT-116, ip, 504 h, read-out: TGI
# Mus musculus [11] = test: Induction of cellular senescence in BALB/c mouse xenografted with human HCT116 cells assessed as up-regulation of p16 protein expression at 10 mg/kg, administered every other day for 3 weeks by immunohistochemical analysis; assay type: functional, organism-based
# [12] = Ratio of IC50 for human HCT116/VP35 cells to IC50 for human HCT116 cells after 72 hrs by MTS assay; assay type: functional
# HCT-116 [13] = test: Induction of cellular senescence in human HCT116 cells assessed as up-regulation of p21 protein expression at 1.32 uM after 48 hrs in presence of p21 siRNA by SA-beta-gal-staining based Western blot analysis; assay type: functional, cell-based
# A-375 [14] = test: Antitumor activity against human A375 cells xenografted in nude BALB/c mouse assessed as tumor growth inhibition at 7.5 mg/kg, ip administered every other day for 23 days relative to control; assay type: functional; conditions: A-375, ip, 552 h, read-out: TGI
# HCT-116 [15] = test: Induction of apoptosis in human HCT116 cells assessed as early apoptotic cells at 1.32 uM after 48 hrs by annexin V/propidium iodide-double staining based flow cytometry (reference value: 4.8%); assay type: functional
# HCT-116 [16] = test: Antiproliferative activity against human HCT116 cells assessed as inhibition of colony formation at 0.66 to 2.63 uM after 14 days by crystal violet-staining based assay; assay type: functional, cell-based
# [17] = system: Panel NCI-60 (60 carcinoma cell lines); test: Growth inhibition human NCI60 cells after 48 hrs by sulforhodamine B assay; assay type: functional
# HeLa [18] = test: Antitumor activity against human HeLa cells xenografted in nude BALB/c mouse assessed as suppression of excised tumor size at 10 mg/kg, ip administered every other day for 21 days and observed for 6 days before sacrifice relative to control; assay type: functional
# HT-29 = test: Growth inhibition human HT-29 cells after 72 hrs by MTS assay; assay type: functional, cell-based
# HCT-116 [19] = test: Antitumor activity against human HCT116 cells xenografted in nude BALB/c mouse assessed as reduction in volume of growing subcutaneous tumor at 20 to 30 mg/kg, ip administered twice a week for 3 weeks; assay type: functional, organism-based
# HeLa [20] = test: Antitumor activity against human HeLa cells xenografted in nude BALB/c mouse assessed as tumor growth inhibition at 10 mg/kg, ip administered every other day for 21 days and observed for 6 days before sacrifice relative to control; assay type: functional; conditions: read-out: TGI
# [21] = Toxicity in BALB/c mouse assessed as mortality at 10 mg/kg, ip dosed daily for 28 days; assay type: organism-based; conditions: in vivo, 672 h
# A-375 [22] = test: Antitumor activity against human A375 cells xenografted in nude BALB/c mouse assessed as suppression of tumor volume at 7.5 mg/kg, ip administered every other day for 23 days relative to control; assay type: functional; conditions: A-375, ip, 552 h, read-out: TGI
# HCT-116 [23] = test: Antitumor activity against human HCT116 cells xenografted in nude BALB/c mouse assessed as tumor growth inhibition at 20 mg/kg, ip administered twice a week for 3 weeks relative to control; assay type: functional; conditions: HCT-116, ip, 504 h, read-out: TGI
# HCT-116 [24] = test: Induction cell cycle arrest in human HCT116 cells assessed as reduction in accumulation in S phase at 1.6 uM after 12 hrs by propidium iodide-staining based flow cytometry; assay type: functional
# Mus musculus [25] = test: Induction of cellular senescence in BALB/c mouse xenografted with human HCT116 cells assessed as up-regulation of p21 protein expression at 10 mg/kg, administered every other day for 3 weeks by immunohistochemical analysis; assay type: functional, organism-based
# HCT-116 [26] = test: Antitumor activity against human HCT116 cells xenografted in nude BALB/c mouse assessed as suppression of excised tumor size at 30 mg/kg, ip administered twice a week for 3 weeks relative to control; assay type: functional
# A549 = test: Cytotoxicity against human A549 cells assessed as cell growth inhibition after 48 hrs by sulforhodamine B assay; assay type: functional, cell-based; conditions: A549, 48 h
# HCT-116 [27] = test: Antiproliferative activity against human HCT116 cells xenografted in BALB/c mouse at 10 mg/kg, administered every other day for 3 weeks by Ki67-staining based assay; assay type: functional, organism-based
# HCT-116 [28] = test: Induction of apoptosis in human HCT116 cells assessed as necrotic cells at 1.32 uM after 48 hrs by annexin V/propidium iodide-double staining based flow cytometry (reference value: […]); assay type: functional
# HCT-116 [29] = test: Induction cell cycle arrest in human HCT116 cells assessed as accumulation in S phase at 1.6 uM after 24 hrs by propidium iodide-staining based flow cytometry; assay type: functional
# A-375 [30] = test: Cytotoxicity against human A375 cells assessed as cell growth inhibition after 48 hrs by sulforhodamine B assay; assay type: functional, cell-based; conditions: A-375, 48 h
# [31] = Toxicity in nude BALB/c mouse xenografted with human HCT116 cells assessed as body weight loss at 7.5 mg/kg, ip measured on day 10 and 11; assay type: organism-based; conditions: in vivo
# HCT-116 [32] = test: Induction of cellular senescence in human HCT116 cells at 1.32 uM after 48 hrs by SA-beta-gal-staining based assay; assay type: functional, cell-based
# [33] = Ratio of IC50 for human A2780/TAX cells to IC50 for human A2780 cells after 72 hrs by MTS assay; assay type: functional
# HCT-116 [34] = test: Antitumor activity against human HCT116 cells xenografted in nude BALB/c mouse assessed as tumor growth inhibition at 7.5 mg/kg, ip administered daily for 21 days relative to control; assay type: functional; conditions: HCT-116, ip, 504 h, read-out: TGI
# Mus musculus [35] = test: Effect on p27 protein expression in BALB/c mouse xenografted with human HCT116 cells at 10 mg/kg, administered every other day for 3 weeks by immunohistochemical analysis; assay type: functional, organism-based
# [36] = Ratio of IC50 for human A2780DDP cells to IC50 for human A2780 cells after 72 hrs by MTS assay; assay type: functional
# [37] = Ratio of IC50 for human HCT116/VM46 cells to IC50 for human HCT116 cells after 72 hrs by MTS assay; assay type: functional
# HCT-116 [38] = test: Induction of apoptosis in human HCT116 cells assessed as necrotic cells at 5.86 nM after 48 hrs by annexin V/propidium iodide-double staining based flow cytometry (reference value: […]); assay type: functional
# [39] = Toxicity in BALB/c mouse assessed as mortality at 5 mg/kg, ip dosed daily and measured on day 25; assay type: organism-based; conditions: in vivo
# HCT-116 [40] = test: Induction of apoptosis in human HCT116 cells assessed as early apoptotic cells at 5.86 nM after 48 hrs by annexin V/propidium iodide-double staining based flow cytometry (reference value: 4.8%); assay type: functional
# [41] = Toxicity in BALB/c mouse assessed as mortality at 2.5 mg/kg, ip administered daily for 28 days; assay type: organism-based; conditions: in vivo, read-out: Activity
# HCT-116 [42] = test: Induction of apoptosis in human HCT116 cells assessed as viable cells at 5.86 nM after 48 hrs by annexin V/propidium iodide-double staining based flow cytometry (reference value: 88.3%); assay type: functional; conditions: HCT-116, 48 h, read-out: Activity
# HCT-116 [43] = test: Antitumor activity against human HCT116 cells xenografted in nude BALB/c mouse assessed as tumor growth inhibition at 10 mg/kg, ip administered twice a week for 3 weeks relative to control; assay type: functional; conditions: HCT-116, ip, 504 h, read-out: TGI
# [44] = Toxicity in nude BALB/c mouse xenografted with human A375 cells assessed as body weight loss at 10 mg/kg, ip measured on day 17 and 21; assay type: organism-based; conditions: in vivo
# HCT-116 [45] = test: Induction of apoptosis in human HCT116 cells assessed as late apoptotic cells at 5.86 nM after 48 hrs by annexin V/propidium iodide-double staining based flow cytometry (reference value: 4.6%); assay type: functional
# HCT-116 [46] = test: Antitumor activity against human HCT116 cells xenografted in nude BALB/c mouse assessed as reduction in volume of growing subcutaneous tumor at 10 mg/kg, ip administered twice a week for 3 weeks; assay type: functional, organism-based
# [47] = Toxicity in human HCT116 cells xenografted nude BALB/c mouse assessed as tumor growth inhibition at 7.5 mg/kg, ip administered daily for 11 days; assay type: organism-based; conditions: in vivo, 264 h
smiles,measurement,setting,value
CC(C)=CCC/C(C)=C/[C@H]1OC(=O)C[C@]12C[C@H](O)C=CC2=O,IC50,HCT-116 [1],1520 nM
same,IC50,HCT-116 [2],3670 nM
same,Activity,[3],1 g
same,Activity,HCT-116 [4],72.7%
same,Activity,HCT-116 [5],Active
same,Activity,HCT-116 [6],Active
same,viability at 1.32 µM,HCT-116 [7],88.2%
same,IC50,A2780,1230 nM
same,Activity,HCT-116 [8],4.9%
same,IC50,HCT-116 [9],2000 to 2610 nM
same,inhibition in vivo at 30 mg/kg,HCT-116 [10],72.7%
same,Activity,Mus musculus [11],Active
same,Ratio IC50,[12],1.1
same,Activity,HCT-116 [13],inactive
same,inhibition in vivo at 7.5 mg/kg,A-375 [14],12.8%
same,Activity,HCT-116 [15],4.4%
same,Activity,HCT-116 [16],Active
same,GI50,[17],30 to 4790 nM
same,Activity,HeLa [18],31.5%
same,growth inhibition (GI),HT-29,Active
same,Activity,HCT-116 [19],Active
same,inhibition in vivo at 10 mg/kg,HeLa [20],30%
same,Activity,[21],Non-Toxic
same,inhibition in vivo at 7.5 mg/kg,A-375 [22],20.6%
same,inhibition in vivo at 20 mg/kg,HCT-116 [23],68.7%
same,Activity,HCT-116 [24],inactive
same,Activity,Mus musculus [25],Active
same,Activity,HCT-116 [26],68.7%
same,IC50,A549,2450 nM
same,Activity,HCT-116 [27],Active
same,Activity,HCT-116 [28],2.5%
same,Activity,HCT-116 [29],inactive
same,IC50,A-375 [30],1500 nM
same,Activity,[31],Toxic
same,Activity,HCT-116 [32],Active
same,Ratio IC50,[33],0.8
same,inhibition in vivo at 7.5 mg/kg,HCT-116 [34],29.9%
same,Activity,Mus musculus [35],inactive
same,Ratio IC50,[36],1
same,Ratio IC50,[37],0.9
CC(=O)O[C@H]1C(=O)[C@@]2(C)[C@H]([C@H](OC(=O)c3ccccc3)[C@]3(O)C[C@H](OC(=O)[C@H](O)[C@@H](NC(=O)c4ccccc4)c4ccccc4)C(C)=C1C3(C)C)[C@]1(OC(C)=O)CO[C@@H]1C[C@@H]2O [PACLITAXEL],Activity,HCT-116 [38],9.2%
same,Activity,[39],Toxic
same,Activity,HCT-116 [40],14.1%
same,IC50,A2780,1.5 nM
same,mortality at 672 h,[41],30%
same,viability at 0.00586 µM,HCT-116 [42],67.3%
same,inhibition in vivo at 10 mg/kg,HCT-116 [43],52.6%
same,Activity,HeLa [18],48.9%
same,inhibition in vivo at 10 mg/kg,HeLa [20],46.5%
same,Activity,[44],Toxic
same,IC50,A-375 [30],2 nM
same,Activity,HCT-116 [45],9.4%
same,Activity,HCT-116 [46],Active
same,Activity,[47],Toxic
